Experimental data from PMC7696940, “Effects of Rationally Designed Physico-Chemical Variants of the Peptide PuroA on Biocidal Activity towards Bacterial and Mammalian Cells” (International Journal of Molecular Sciences, 2020).
≈ marks a conversion by molar mass, not a printed value. Where no end group is shown, it is not given here.

Tests used:
MRSA M173525 biofilm = experiment: Inhibition of preformed 6 h biofilm (CV and MTT assays); format: cell-based, methicillin-resistant Staphylococcus aureus; conditions: 37 °C, triplicate
Experimental: The effects of PuroA and other selected peptides (based on their antibacterial activity) on both the initial cell attachment and 6 h preformed biofilms of MRSA on polystyrene were tested as described by Jadhav et al., at their respective 0.5 × MIC, 1 × MIC, and 2 × MIC concentrations. All tests were conducted in triplicate. For testing the inhibition of initial cell attachment, 100 μL of peptide solutions were added to the microtitre plates, then mixed with 100 μL of M173525 cell suspension (1 × 10^6 CFU/mL, cultured in tryptic soy broth medium (TSB; Oxoid) containing 1% glucose), or 100 μL of sterile MilliQ water as negative control. The plates were incubated at 37 °C for 24 h to allow cell attachment. The biofilm formation was then assessed using CV and MTT assays. […] Peptide solutions (100 μL) were then added, the plates incubated at 37 °C for 1 h and the biofilms assessed.
The assay works as an indicator of attached living and non-living biomass. Indirect assessment of cell attachment of MRSA was estimated using the modified CV assay as per Jadhav et al.. After incubations of the plates (for 24 h or 1 h, as above), the culture medium from each well was removed gently and any non-adherent bacteria removed by washing the plates five times with sterile distilled water (dH2O). The plates were air-dried, then oven-dried at 60 °C for 1 h. The biofilm cells in the wells were stained with 100 μL of 1% CV and incubated for 15 min at room temperature. Excess stain was removed by washing the plates three times with sterile dH2O. Ethanol (95%, 125 µL) was transferred to each well to de-stain the cells. The de-staining solution from each well was then transferred to a new plate and its absorbance measured at 595 nm. The percentage inhibition of biomass formation concentration was calculated as: ((OD595 nm control well without peptide − OD5 95 well with peptide)/OD595 nm control well without peptide) × 100. All tests were conducted in triplicate.
A modified methylthiazotetrazolium (MTT) (3-[4,5-dimethyl thiazol-2-yl]-2, 5-diphenyltetrazolium bromide) reduction assay was used, wherein the blue product (MTT salt reduced to formazan by dehydrogenases) is taken as a respiratory indicator of live cells. Briefly, MTT (Sigma-Aldrich, Gillingham, UK) was dissolved in PBS to 5 mg/mL. After incubations of plates (for 24 h or 1 h, as above), the culture medium was gently removed and the plates air-dried. PBS (100 μL) and MTT (5 µL, 5 mg/mL) were added to each well and the plates incubated for 3 h at 37 °C. The insoluble purple product was dissolved in 100 µL of dimethyl sulphoxide (DMSO, Sigma-Aldrich, Gillingham, UK) and the absorbance measured at 570 nm. The % inhibition of metabolic activity was calculated as: ((OD570 nm control well without peptide − OD570 nm well with peptide)/OD570 nm control well without peptide) × 100. All tests were conducted in triplicate.

NIH-3T3 cells = experiment: Cytotoxicity, MTT assay; format: cell-based, mouse; conditions: 24 h; for IC50 NIH-3T3: peptide up to 250 µg/mL, concentration causing 50% cell growth inhibition, mean of triplicate assays
Experimental: (§1) Cytotoxicity to human cervical carcinoma HeLa cells and mouse fibroblastic NIH-3T3 cells was determined using the MTT assay as per Scudiero et al. with minor modifications. The cells were maintained in Dulbecco’s Modified Eagle Medium (DMEM) with 10% foetal bovine serum (FBS) and 1% penicillin G in a humidified incubator (Heraeus Hera Cell incubator) at 37 °C with 5% CO2. They were seeded in 96-well microtiter plates at 1 × 10^4 cells/well and allowed to adhere for 24 h in the incubator. The medium was removed, and adherent cells were washed with PBS. Fresh media containing serially diluted peptides in PBS (final concentrations 4 to 250 µg/mL) were added and the cells incubated for 24 h. Cells without peptides were used as negative controls. Following incubations, the medium was removed, and adherent cells were washed with PBS. 150 µL of MTT (diluted to 0.33 mg/mL in DMEM) and the plates incubated for 3 h. The precipitated formazan was dissolved in 100 µL of DMSO and its absorbance measured at 570 nm. Cell viability was determined as: (OD570 nm peptide treated cells/(OD570 nm untreated cells) × 100. Positive cytotoxicity was defined as peptide concentration that causes 50% growth inhibition in a cell line (IC50). All tests were carried out in triplicate.

MRSA M173525 = format: cell-based, methicillin-resistant Staphylococcus aureus; conditions: clinical isolate; MHB, 37 °C overnight; mode of three independent experiments
Experimental: (§2) The activity of peptides was determined against the Gram-positive Staphylococcus aureus (ATCC 25923), and the Gram-negative Escherichia coli (ATCC 25922) and Pseudomonas aeruginosa (ATCC 9027) bacteria. Selected peptides were also tested against two clinical isolates of methicillin-resistant Staphylococcus aureus (MRSA), M173525 and M180920, kindly provided by Dr P. B. Ward (Microbiology Department, Austin and Repatriation Medical Centre, Heidelberg West, Victoria, Australia). The Minimum inhibitory concentration (MIC) of peptides was determined by the microtitre broth dilution method, as described in Phillips et al.. Briefly, bacteria were grown in Mueller-Hinton Broth (MHB) at 37 °C overnight with shaking (200 rpm). The cultures were adjusted to 0.5 McFarland turbidity standard (approximately 1 × 10^8 colony forming units (CFU)/mL), then diluted 1:100 in MHB (1 × 10^6 CFU/mL). A total of 75 μL of these suspensions were mixed with 25 μL of peptide solutions (final concentrations 250 to 0.5 μg/mL) and the microtitre plates incubated overnight at 37 °C. Positive growth controls (inoculum and MHB, with no peptide) and sterility controls (0.01% glacial acetic) were also included. Post-incubations, the absorbance of cultures at 595 nm was measured using a microplate reader (POLARstar Omega, Germany). […] To evaluate salt sensitivity of peptides up to physiological levels (150 mM NaCl), overnight cultures of S. aureus and E. coli adjusted to 0.5 McFarland turbidity standard were diluted 1:100 in MHB containing 0, 50, 100 or 150 mM NaCl, and the MICs of peptides determined as above. All tests were conducted in triplicate. The results are shown as the mode of values obtained.

MRSA M180920 = format: cell-based, methicillin-resistant Staphylococcus aureus; conditions: clinical isolate; MHB, 37 °C overnight; mode of three independent experiments
Experimental: as §2

HeLa cells = format: cell-based, human; conditions: MTT, 24 h, peptide up to 250 µg/mL; concentration causing 50% cell growth inhibition; mean of triplicate assays
Experimental: as §1

E. coli ATCC25922 = format: cell-based, Escherichia coli; conditions: MHB; for MIC E. coli, No NaCl: 0 mM NaCl; for MIC E. coli, No NaCl / MIC E. coli, With 50mM NaCl / MIC E. coli, With 100mM NaCl / MIC E. coli, With 150mM NaCl: triplicate, mode; for MIC E. coli ATCC25922: 37 °C overnight, A595, mode of three independent experiments
Experimental: as §2

Compound | % Inhibition of Preformed 6 h MRSA Biofilm after 1 h Incubation, CV (MRSA M173525 biofilm; 0.5 × MIC) [%] | % Inhibition of Preformed 6 h MRSA Biofilm after 1 h Incubation, MTT (MRSA M173525 biofilm; 0.5 × MIC) [%] | % Inhibition of Preformed 6 h MRSA Biofilm after 1 h Incubation, CV (MRSA M173525 biofilm; 1 × MIC) [%] | % Inhibition of Preformed 6 h MRSA Biofilm after 1 h Incubation, MTT (MRSA M173525 biofilm; 1 × MIC) [%] | % Inhibition of Preformed 6 h MRSA Biofilm after 1 h Incubation, CV (MRSA M173525 biofilm; 2 × MIC) [%] | % Inhibition of Preformed 6 h MRSA Biofilm after 1 h Incubation, MTT (MRSA M173525 biofilm; 2 × MIC) [%] | IC50 NIH-3T3 (NIH-3T3 cells) [µg/mL] | MIC MRSA M173525 (MRSA M173525) [µg/mL] | MIC MRSA M180920 (MRSA M180920) [µg/mL] | IC50 HeLa (HeLa cells) [µg/mL] | MIC E. coli, No NaCl (E. coli ATCC25922) [µg/mL] | MIC E. coli, With 50mM NaCl (E. coli ATCC25922) [µg/mL] | MIC E. coli, With 100mM NaCl (E. coli ATCC25922) [µg/mL] | MIC E. coli, With 150mM NaCl (E. coli ATCC25922) [µg/mL] | MIC E. coli ATCC25922 (E. coli ATCC25922) [µg/mL] | Cytotoxicity to NIH-3T3 mouse fibroblasts (in words) (NIH-3T3 cells; up to 250 µg/mL)
RKRWWRWWKWWKR-NH2 [Peptide P1] | 70 ± 6.9 | 93 ± 5.0 | 74 ± 5.8 | 95 ± 3.8 | 78 ± 3.1 | 95 ± 4.0 | 250 | 16 | 8 | 32 | 16 | 16 | 16 | 16 | – | –
CC(C)[C@H](NC(=O)[C@@H]1CCCN1C(=O)[C@@H](N)Cc1ccccc1)C(=O)N[C@H](C(=O)N[C@@H](Cc1c[nH]c2ccccc12)C(=O)N[C@@H](CCCNC(=N)N)C(=O)N[C@@H](Cc1c[nH]c2ccccc12)C(=O)N[C@@H](Cc1c[nH]c2ccccc12)C(=O)N[C@@H](CCCCN)C(=O)N[C@@H](Cc1c[nH]c2ccccc12)C(=O)N[C@@H](Cc1c[nH]c2ccccc12)C(=O)N[C@@H](CCCCN)C(=O)NCC(N)=O)[C@@H](C)O [PuroA] | 68 ± 9.2 | 90 ± 2.5 | 75 ± 7.5 | 92 ± 4.0 | 77 ± 7.0 | 95 ± 2.6 | 250 (≈ 134 µM) | 16 (≈ 8.59 µM) | 16 (≈ 8.59 µM) | >250 | 16 (≈ 8.59 µM) | 16 (≈ 8.59 µM) | 32 (≈ 17.2 µM) | 64 (≈ 34.4 µM) | 16 (≈ 8.59 µM) | –
WWRWWKWW-NH2 [WW] | 69 ± 7.8 | 91 ± 3.0 | 71 ± 4.5 | 92 ± 3.5 | 74 ± 2.0 | 95 ± 1.7 | >250 | 4 | 4 | 250 | 8 | 8 | 8 | 8 | 8 | no cytotoxicity
WRWWKWW-NH2 [Peptide W7] | 67 ± 6.0 | 88 ± 2.5 | 75.5 ± 3.0 | 90 ± 4.7 | 75 ± 5.5 | 94 ± 0.5 | 250 | 8 | 8 | 250 | 4 | 4 | 4 | 4 | 4 | –
